Drawing on patent publication US20090304692A1, “TRIAZINE COMPOUNDS AS PI3 KINASE AND MTOR INHIBITORS” (Wyeth, priority 2008, published 2009), this text covers IC50 for 14 compounds.

Where two headings read alike, the source gives them in different places.

Experiment [1] relates to human breast MDA-MB-361 tumor cell line. In words: In vitro cell culture growth assay (MTS), MDA-MB-361. The experiment is classed as cell-based. The conditions noted are these: Homo sapiens, MTS cell growth assay, three days after drug treatment, MDA-MB-361 cells, read-out: IC50 MDA-MB-361.
Experiment [2] has as its system human prostate PC3-mm2 tumor cell line. Nature of the experiment: In vitro cell culture growth assay (MTS), PC3-mm2. Type of experiment: cell-based. The conditions noted are these: Homo sapiens, PC3MM2, 72 h, MTS cell growth assay, three days after drug treatment, PC3-mm2 cells; read-out: IC50 PC3-mm2. (Formazan colour is commonly taken as a measure of viable cells.)

A further experiment has as its target Human mTOR (FLAG-TOR) (Homo sapiens, UniProt P42345). Nature of the experiment: mTOR kinase assay (DELFIA format, purified enzyme). Type of experiment: biochemical. The note with it: read-out: IC50 mTOR.
For a further experiment, the target named is PI3K-α (Homo sapiens, UniProt P42336). Nature of the experiment: PI3K-alpha fluorescence polarization assay. The conditions noted are these: read-out: IC50 PI3Kα. (In general: Fluorescence polarisation rises when a labelled molecule tumbles more slowly, as on binding a larger partner.)
In a further experiment the target is PI3K-γ (Homo sapiens, UniProt P48736). In words: PI3K-gamma fluorescence polarization assay. The conditions noted are these: read-out: IC50 PI3Kγ.
PI3K-γ, sequence (P48736 whole entry, species assumed): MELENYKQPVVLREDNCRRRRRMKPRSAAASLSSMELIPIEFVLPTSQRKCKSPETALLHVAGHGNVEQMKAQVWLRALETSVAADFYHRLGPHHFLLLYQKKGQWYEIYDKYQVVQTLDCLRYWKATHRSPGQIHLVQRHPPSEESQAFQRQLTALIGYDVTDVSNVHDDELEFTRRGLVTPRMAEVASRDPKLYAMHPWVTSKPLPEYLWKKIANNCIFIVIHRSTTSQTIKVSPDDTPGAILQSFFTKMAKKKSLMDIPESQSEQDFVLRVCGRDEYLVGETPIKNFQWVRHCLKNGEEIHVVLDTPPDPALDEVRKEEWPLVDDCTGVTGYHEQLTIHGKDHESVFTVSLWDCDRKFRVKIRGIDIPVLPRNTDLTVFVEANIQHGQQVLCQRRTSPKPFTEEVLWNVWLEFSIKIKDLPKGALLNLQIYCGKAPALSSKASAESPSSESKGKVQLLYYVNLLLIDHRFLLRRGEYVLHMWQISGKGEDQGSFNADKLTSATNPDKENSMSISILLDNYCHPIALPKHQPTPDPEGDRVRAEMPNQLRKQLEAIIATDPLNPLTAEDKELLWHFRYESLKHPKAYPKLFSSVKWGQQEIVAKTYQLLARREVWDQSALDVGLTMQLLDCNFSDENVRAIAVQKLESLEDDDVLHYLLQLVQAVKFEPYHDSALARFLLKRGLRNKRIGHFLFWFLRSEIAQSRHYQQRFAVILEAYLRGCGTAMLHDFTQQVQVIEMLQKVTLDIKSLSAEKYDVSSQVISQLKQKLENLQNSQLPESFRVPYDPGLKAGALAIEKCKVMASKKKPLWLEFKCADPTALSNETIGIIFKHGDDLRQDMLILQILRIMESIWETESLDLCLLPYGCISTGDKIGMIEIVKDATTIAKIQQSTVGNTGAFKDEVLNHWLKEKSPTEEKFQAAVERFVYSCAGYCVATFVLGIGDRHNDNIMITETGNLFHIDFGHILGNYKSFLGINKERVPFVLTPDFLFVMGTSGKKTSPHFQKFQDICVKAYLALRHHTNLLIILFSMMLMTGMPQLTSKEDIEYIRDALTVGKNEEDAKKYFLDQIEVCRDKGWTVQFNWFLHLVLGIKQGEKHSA

PI3K-α, sequence (P42336 whole entry, species assumed): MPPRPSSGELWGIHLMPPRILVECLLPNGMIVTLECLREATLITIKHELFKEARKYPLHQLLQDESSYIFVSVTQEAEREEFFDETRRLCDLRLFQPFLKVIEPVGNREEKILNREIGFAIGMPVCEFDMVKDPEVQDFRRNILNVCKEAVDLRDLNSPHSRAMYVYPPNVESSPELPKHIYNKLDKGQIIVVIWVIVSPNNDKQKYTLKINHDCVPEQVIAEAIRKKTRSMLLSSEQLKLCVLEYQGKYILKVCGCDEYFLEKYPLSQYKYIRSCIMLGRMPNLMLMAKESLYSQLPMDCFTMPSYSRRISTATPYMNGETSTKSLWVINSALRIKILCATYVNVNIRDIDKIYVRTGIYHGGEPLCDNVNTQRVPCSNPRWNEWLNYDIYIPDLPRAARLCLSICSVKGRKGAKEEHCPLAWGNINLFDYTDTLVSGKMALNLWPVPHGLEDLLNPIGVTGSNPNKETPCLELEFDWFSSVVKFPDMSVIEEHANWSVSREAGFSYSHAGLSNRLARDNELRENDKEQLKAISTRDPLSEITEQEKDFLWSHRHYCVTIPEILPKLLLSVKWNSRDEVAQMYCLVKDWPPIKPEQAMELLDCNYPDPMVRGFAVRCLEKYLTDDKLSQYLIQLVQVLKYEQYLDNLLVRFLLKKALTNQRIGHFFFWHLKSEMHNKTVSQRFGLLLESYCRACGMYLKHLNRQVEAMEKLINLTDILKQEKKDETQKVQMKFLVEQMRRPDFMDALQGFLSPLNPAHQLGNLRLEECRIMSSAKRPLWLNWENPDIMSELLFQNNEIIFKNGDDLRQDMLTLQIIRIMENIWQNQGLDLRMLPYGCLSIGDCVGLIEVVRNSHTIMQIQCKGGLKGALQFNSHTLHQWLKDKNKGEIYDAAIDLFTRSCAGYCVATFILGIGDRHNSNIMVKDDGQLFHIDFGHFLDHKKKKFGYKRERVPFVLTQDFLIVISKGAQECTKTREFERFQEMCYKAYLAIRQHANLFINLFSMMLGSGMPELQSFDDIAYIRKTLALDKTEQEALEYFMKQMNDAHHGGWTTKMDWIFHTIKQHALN
PI3K-α, sequence (P27986 whole entry partner, species assumed): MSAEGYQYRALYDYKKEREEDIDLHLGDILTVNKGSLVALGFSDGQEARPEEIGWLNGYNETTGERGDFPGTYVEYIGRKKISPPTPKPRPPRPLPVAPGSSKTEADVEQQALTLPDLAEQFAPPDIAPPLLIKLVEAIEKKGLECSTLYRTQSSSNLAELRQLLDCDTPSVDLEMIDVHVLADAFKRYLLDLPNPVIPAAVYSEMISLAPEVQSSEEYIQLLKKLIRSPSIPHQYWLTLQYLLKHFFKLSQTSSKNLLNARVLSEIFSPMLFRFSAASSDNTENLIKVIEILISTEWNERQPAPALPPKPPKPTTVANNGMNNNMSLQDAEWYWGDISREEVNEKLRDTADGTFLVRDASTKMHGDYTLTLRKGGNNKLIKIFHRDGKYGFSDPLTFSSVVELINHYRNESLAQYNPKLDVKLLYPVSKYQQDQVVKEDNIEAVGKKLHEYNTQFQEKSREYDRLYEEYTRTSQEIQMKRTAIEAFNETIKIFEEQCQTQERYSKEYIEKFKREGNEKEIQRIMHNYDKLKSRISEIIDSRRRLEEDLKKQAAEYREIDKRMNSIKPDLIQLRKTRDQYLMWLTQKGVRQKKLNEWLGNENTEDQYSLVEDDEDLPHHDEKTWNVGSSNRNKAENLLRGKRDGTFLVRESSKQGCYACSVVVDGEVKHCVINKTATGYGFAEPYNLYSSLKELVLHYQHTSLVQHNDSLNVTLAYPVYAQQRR
Human mTOR (FLAG-TOR), sequence (P42345 1360-2549 limits assumed): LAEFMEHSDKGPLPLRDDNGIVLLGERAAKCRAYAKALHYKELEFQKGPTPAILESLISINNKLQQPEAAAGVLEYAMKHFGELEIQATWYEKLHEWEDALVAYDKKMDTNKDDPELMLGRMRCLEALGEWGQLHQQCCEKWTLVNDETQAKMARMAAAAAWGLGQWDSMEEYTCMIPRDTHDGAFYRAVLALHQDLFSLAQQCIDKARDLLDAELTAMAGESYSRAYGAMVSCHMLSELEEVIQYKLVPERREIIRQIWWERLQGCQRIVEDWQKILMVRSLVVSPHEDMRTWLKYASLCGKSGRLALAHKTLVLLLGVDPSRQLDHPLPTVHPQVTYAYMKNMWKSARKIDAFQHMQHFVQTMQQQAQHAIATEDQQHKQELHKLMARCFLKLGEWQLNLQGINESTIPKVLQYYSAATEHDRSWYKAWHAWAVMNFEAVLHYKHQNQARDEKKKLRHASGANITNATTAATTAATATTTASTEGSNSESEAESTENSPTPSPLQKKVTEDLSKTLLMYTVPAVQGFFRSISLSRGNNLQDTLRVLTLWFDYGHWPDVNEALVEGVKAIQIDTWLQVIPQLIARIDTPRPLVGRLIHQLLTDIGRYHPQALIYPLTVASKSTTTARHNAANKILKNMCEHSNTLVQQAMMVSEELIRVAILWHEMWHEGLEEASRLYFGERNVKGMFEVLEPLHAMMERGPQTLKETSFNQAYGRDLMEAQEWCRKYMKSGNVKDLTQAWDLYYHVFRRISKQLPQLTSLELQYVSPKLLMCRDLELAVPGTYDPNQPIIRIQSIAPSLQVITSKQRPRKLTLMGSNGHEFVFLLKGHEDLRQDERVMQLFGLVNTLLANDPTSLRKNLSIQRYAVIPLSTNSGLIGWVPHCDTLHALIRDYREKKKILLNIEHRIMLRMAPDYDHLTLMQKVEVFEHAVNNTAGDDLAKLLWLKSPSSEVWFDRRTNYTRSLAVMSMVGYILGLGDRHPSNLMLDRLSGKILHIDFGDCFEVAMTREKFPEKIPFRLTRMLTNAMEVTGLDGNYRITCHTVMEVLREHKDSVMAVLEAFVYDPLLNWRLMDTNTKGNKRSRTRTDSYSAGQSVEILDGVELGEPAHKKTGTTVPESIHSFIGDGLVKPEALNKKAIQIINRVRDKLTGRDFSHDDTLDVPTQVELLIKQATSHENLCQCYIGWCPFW

Broadly, the IC50 is the concentration that gives 50% inhibition. Regarding `CC(C)N1CCN(C(=O)c2ccc(NC(=O)Nc3ccc(-c4nc(O[C@H]5CCOC5)nc(N5CCOCC5)n4)cc3)cc2)CC1` [Example 522, 1-(4-{[4-(1-methylethyl)piperazin-1-yl]carbonyl}phenyl)-3-(4-{4-morpholin-4-yl-6-[(3S)-tetrahydrofuran-3-yloxy]-1,3,5-triazin-2-yl}phenyl)urea], the IC50 in experiment [1] (72 h) amounted to 3 nM; in experiment [2], 11 nM; on Human mTOR (FLAG-TOR) it was 1.06 nM; at PI3K-α it was 1.4 nM; at PI3K-γ, 7.5 nM.

As for `CCc1nc(-c2ccc(NC(=O)Nc3ccc(C(=O)N4CCN(c5ccccn5)CC4)cc3)cc2)nc(N2CCOCC2)n1` [Example 534, 1-[4-(4-ethyl-6-morpholin-4-yl-1,3,5-triazin-2-yl)phenyl]-3-{4-[(4-pyridin-2-ylpiperazin-1-yl)carbonyl]phenyl}urea], the IC50 turned out to be 32.3 nM in experiment [1] (72 h); 73.7 nM in experiment [2]; 53.4 nM on Human mTOR (FLAG-TOR); 2.1 nM at PI3K-α; 11.1 nM at PI3K-γ.

With `CN(C)CCN(C)C(=O)c1ccc(NC(=O)Nc2ccc(-c3nc(-c4ccccc4)nc(N4CCOCC4)n3)cc2)cc1` [Example 539, N-[2-(dimethylamino)ethyl]-N-methyl-4-({[4-(4-morpholin-4-yl-6-phenyl-1,3,5-triazin-2-yl)phenyl]carbamoyl}amino)benzamide], the IC50 in experiment [1] (72 h) was determined as 9 nM; in experiment [2] it was 161 nM; on Human mTOR (FLAG-TOR), 0.0085 nM; at PI3K-α, 1.1 nM; at PI3K-γ, 16 nM.

In the case of `COC(=O)c1ccc(NC(=O)Nc2ccc(-c3nc(N4CCOC[C@@H]4C)nc(N4CCOC[C@@H]4C)n3)cc2)cc1` [Example 540, methyl 4-{[(4-{4,6-bis[(3S)-3-methylmorpholin-4-yl]-1,3,5-triazin-2-yl}phenyl)carbamoyl]amino}benzoate], the IC50 in experiment [1] (72 h) was 165 nM; in experiment [2], 309 nM; on Human mTOR (FLAG-TOR), 0.0034 nM; on PI3K-α it was 54 nM; on PI3K-γ, 121 nM.

Consider `O=C(Nc1ccc(C(=O)O)cc1)Nc1ccc(-c2nc(-c3ccccc3)nc(N3CCOCC3)n2)cc1` [Example 541, 4-({[4-(4-morpholin-4-yl-6-phenyl-1,3,5-triazin-2-yl)phenyl]carbamoyl}amino)benzoic acid], for which the IC50 in experiment [1] (MDA-MB-361, 72 h) stood at 964 nM; in experiment [2], 1760 nM; on Human mTOR (FLAG-TOR), 17 nM; on PI3K-α it was 28 nM; on PI3K-γ, 57 nM.

Regarding `Cc1ccc(-c2nc(-c3ccc(NC(=O)Nc4ccc(C(=O)NCCN(C)C)cc4)cc3)nc(N3CCOCC3)n2)cc1` [Example 542, N-[2-(dimethylamino)ethyl]-4-[({4-[4-(4-methylphenyl)-6-morpholin-4-yl-1,3,5-triazin-2-yl]phenyl}carbamoyl)amino]benzamide], the IC50 was found to be 281 nM in experiment [1] (72 h); 569 nM in experiment [2]; 21.5 nM at Human mTOR (FLAG-TOR); 8 nM at PI3K-α; 67 nM at PI3K-γ.

Take `CN1CCN(C(=O)c2ccc(NC(=O)Nc3ccc(-c4nc(-c5ccccc5)nc(N5CCOCC5)n4)cc3)cc2)CC1` [Example 543, 1-{4-[(4-methylpiperazin-1-yl)carbonyl]phenyl}-3-[4-(4-morpholin-4-yl-6-phenyl-1,3,5-triazin-2-yl)phenyl]urea]: the IC50 in experiment [1] (MDA-MB-361, 72 h) is under 31 nM; in experiment [2], 262 nM; at Human mTOR (FLAG-TOR), 42 nM; on PI3K-α it was 3.5 nM; on PI3K-γ, 15.5 nM.

As to `CN(C)CCNC(=O)c1ccc(NC(=O)Nc2ccc(-c3nc(-c4ccccc4)nc(N4CCOCC4)n3)cc2)cc1` [Example 545, N-[2-(dimethylamino)ethyl]-4-({[4-(4-morpholin-4-yl-6-phenyl-1,3,5-triazin-2-yl)phenyl]carbamoyl}amino)benzamide], the IC50 in experiment [1] (72 h) was 30 nM; in experiment [2], 219 nM; at Human mTOR (FLAG-TOR), 10.9 nM; on PI3K-α, 4 nM; at PI3K-γ it was 17 nM.

Consider `C[C@H]1COCCN1c1nc(-c2ccc(NC(=O)Nc3ccc(C(=O)NCCN(C)C)cc3)cc2)nc(N2CCOC[C@@H]2C)n1` [Example 546, 4-{[(4-{4,6-bis[(3S)-3-methylmorpholin-4-yl]-1,3,5-triazin-2-yl}phenyl)carbamoyl]amino}-N-[2-(dimethylamino)ethyl]benzamide], for which the IC50 was 7 nM in experiment [1] (72 h); 25 nM in experiment [2]; 0.225 nM on Human mTOR (FLAG-TOR); 3.5 nM at PI3K-α; 73.5 nM on PI3K-γ.

Regarding `Cc1ccc(-c2nc(-c3ccc(NC(=O)Nc4ccc(C(=O)N5CCN(C(C)C)CC5)cc4)cc3)nc(N3CCOCC3)n2)cc1` [Example 547, 1-{4-[(4-isopropylpiperazin-1-yl)carbonyl]phenyl}-3-{4-[4-(4-methylphenyl)-6-morpholin-4-yl-1,3,5-triazin-2-yl]phenyl}urea], the IC50 in experiment [1] (MDA-MB-361, 72 h) came out at 68 nM; in experiment [2], 197 nM; on Human mTOR (FLAG-TOR), 7.75 nM; at PI3K-α, 11 nM; at PI3K-γ, 70 nM.

Take `Cc1ccc(-c2nc(-c3ccc(NC(=O)Nc4ccc(C(=O)NCCN5CCCC5)cc4)cc3)nc(N3CCOCC3)n2)cc1` [Example 548, 4-[({4-[4-(4-methylphenyl)-6-morpholin-4-yl-1,3,5-triazin-2-yl]phenyl}carbamoyl)amino]-N-(2-pyrrolidin-1-ylethyl)benzamide]: the IC50 in experiment [1] (72 h) came out at 524 nM; in experiment [2], 869 nM; on Human mTOR (FLAG-TOR), 9.75 nM; on PI3K-α, 40 nM; at PI3K-γ, 387 nM.

For the compound `COCCNC(=O)c1ccc(NC(=O)Nc2ccc(-c3nc(-c4ccc(C)cc4)nc(N4CCOCC4)n3)cc2)cc1` [Example 550, N-(2-methoxyethyl)-4-[({4-[4-(4-methylphenyl)-6-morpholin-4-yl-1,3,5-triazin-2-yl]phenyl}carbamoyl)amino]benzamide], the 50% inhibitory concentration (IC50) stood at 315 nM in experiment [1] (72 h); 711 nM in experiment [2]; 12.4 nM on Human mTOR (FLAG-TOR); 47 nM at PI3K-α; 374 nM at PI3K-γ.

Turning to `COCCNC(=O)c1ccc(NC(=O)Nc2ccc(-c3nc(-c4ccccc4)nc(N4CCOCC4)n3)cc2)cc1` [Example 551, N-(2-methoxyethyl)-4-({[4-(4-morpholin-4-yl-6-phenyl-1,3,5-triazin-2-yl)phenyl]carbamoyl}amino)benzamide], the IC50 in experiment [1] (72 h) was found to be 106 nM; in experiment [2], 270 nM; at Human mTOR (FLAG-TOR) it was 10 nM; at PI3K-α it was 24 nM; at PI3K-γ it was 118 nM.

Take `O=C(Nc1ccc(C(=O)NCCN2CCCC2)cc1)Nc1ccc(-c2nc(-c3ccccc3)nc(N3CCOCC3)n2)cc1` [Example 552, 4-({[4-(4-morpholin-4-yl-6-phenyl-1,3,5-triazin-2-yl)phenyl]carbamoyl}amino)-N-(2-pyrrolidin-1-ylethyl)benzamide]: the IC50 in experiment [1] (72 h) was 105 nM; in experiment [2] it was 243 nM; at Human mTOR (FLAG-TOR) it was 3.55 nM; at PI3K-α, 11.5 nM; at PI3K-γ, 127 nM.
